Among the data in patent US7868026B2, “Therapeutic compounds” (Pfizer Inc., priority 2005, dated 2011) are Ki and IC50 values, retold here.

The structures appear in SMILES notation. Read-outs that look alike come from different tables or passages of the source.

What all share (type): biochemical
Experiment [1] has as its target T1, CYP3A4 (Homo sapiens, UniProt P08684). As to the kind of experiment: Determination of compound Kiapp against recombinant CYP3A4 enzyme (BFC fluorescent substrate). The method, boiled down: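 Kiapp derived from initial velocities over the first 5 min of BFC (5 uM) oxidation, using Morrison's tight-binding equation for non-partial and Szedlacsek's for partial inhibitors. Inhibitor first pre-incubated ≥30 min with CYP3A4 (5.5 or 8 nM, ±b5) in pH 7.0 phosphate/TCEP/2% DMF at room temperature; 200 uM NADPH initiated.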

For experiment [2], the target named is T1, CYP3A4. The experiment in a line: Determination of IC50 against CYP3A4 by measurement of inhibition of testosterone metabolism (human liver microsomes, 6-β-OH-testosterone by LC-MS/MS). Particulars: read-out: IC50 (Testo.). Details: 0.1 mg/mL human liver microsomes. The method, boiled down:
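6-β-OH-testosterone formation was read by LC-MS/MS (MRM, internal standard, standard curve) after eight minutes. Reaction contained testosterone 25 μM, NADPH 1 mM and microsomal protein 0.1 mg/mL in pH 7.4 potassium phosphate (100 mM).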

For experiment [3], the target named is T1, CYP3A4. As to the kind of experiment: Determination of IC50 against CYP3A4 by measurement of inhibition of midazolam metabolism (human liver microsomes, 1-hydroxymidazolam by LC-MS/MS). Particulars: 2 μM midazolam, 0.1 mg/mL human liver microsomes. On the set-up: 0.1 mg/mL human liver microsomes. The method in brief: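 Human liver microsomes (0.1 mg/mL) incubated 8 min with 2 μM midazolam and 1 mM NADPH in 100 mM potassium phosphate, pH 7.4. 1-Hydroxymidazolam quantified by LC-MS/MS (MRM) as peak area ratio to internal standard against a metabolite standard curve.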

Where [4] appears, read: Baculo. enzyme preparation, read-out: Kiapp (BFC, Baculo.).
Where [5] appears, read: Super. enzyme preparation, read-out: Kiapp (BFC, Super.).

T1 sequence (P08684 whole entry): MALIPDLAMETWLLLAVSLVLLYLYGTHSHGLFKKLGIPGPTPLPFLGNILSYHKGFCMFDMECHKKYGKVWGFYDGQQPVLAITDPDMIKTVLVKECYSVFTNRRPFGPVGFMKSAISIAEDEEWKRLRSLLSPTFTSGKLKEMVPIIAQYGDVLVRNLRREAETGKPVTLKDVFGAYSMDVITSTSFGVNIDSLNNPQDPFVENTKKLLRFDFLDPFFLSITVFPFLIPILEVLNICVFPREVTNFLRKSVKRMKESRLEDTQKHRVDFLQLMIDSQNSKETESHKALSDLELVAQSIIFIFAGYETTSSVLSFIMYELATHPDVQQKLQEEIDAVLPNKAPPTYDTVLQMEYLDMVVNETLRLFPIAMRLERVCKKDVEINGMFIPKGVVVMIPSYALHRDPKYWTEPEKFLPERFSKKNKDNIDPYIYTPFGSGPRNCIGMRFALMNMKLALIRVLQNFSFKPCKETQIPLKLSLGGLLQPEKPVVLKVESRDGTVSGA

Take `COc1cncc(NS(=O)(=O)c2ccccc2C(=O)NCc2cccc(F)c2F)c1` [Example 181, N-(2,3-difluorobenzyl)-2-{[(5-methoxypyridin-3-yl)amino]sulfonyl}benzamide]: the Ki in experiment [1] (setting [4]) was 71.8 nM; in experiment [1] (setting [5]), 10.8 nM. In addition, the IC50 in experiment [2] came to 13 nM; in experiment [3], 7 nM.

As for `Cc1cncc(NS(=O)(=O)c2ccccc2C(=O)NCc2ccc(F)c(C)c2)c1` [Example 156, N-(4-fluoro-3-methylbenzyl)-2-{[(5-methylpyridin-3-yl)amino]sulfonyl}benzamide], the Ki in experiment [1] (setting [4]) was 84 nM; in experiment [1] (setting [5]) it was 5 nM. For the same compound, the IC50 came to 11 nM in experiment [2] and 13 nM in experiment [3].

For the compound `O=C(NC1Cc2ccccc2C1)c1ccccc1S(=O)(=O)Nc1cccnc1` [Example 58, N-(2,3-dihydro-1H-inden-2-yl)-2-[(pyridin-3-ylamino)sulfonyl]benzamide], the Ki amounted to 150 nM in experiment [1] (setting [4]) and 9.1 nM in experiment [1] (setting [5]). Also, the half-maximal inhibitory concentration (IC50) in experiment [2] came to 25.3 nM; in experiment [3], 26.5 nM.

On to `Cc1cncc(NS(=O)(=O)c2ccccc2C(=O)N2CCCC(C)(C)C2)c1` [Example 343, 2-[(3,3-dimethylpiperidin-1-yl)carbonyl]-N-(5-methylpyridin-3-yl)benzenesulfonamide], for which the Ki in experiment [1] (setting [4]) was found to be 206 nM; in experiment [1] (setting [5]) it was 60.3 nM. Also, the IC50 in experiment [2] worked out at 80 nM; in experiment [3] it was 37 nM.

Turning to `COc1cncc(NS(=O)(=O)c2ccccc2C(=O)NCc2cc(F)cc(F)c2)c1` [Example 184, N-(3,5-difluorobenzyl)-2-{[(5-methoxypyridin-3-yl)amino]sulfonyl}benzamide], the Ki in experiment [1] (setting [4]) came to 54.5 nM; in experiment [1] (setting [5]), 5.9 nM. In addition, the IC50 in experiment [2] turned out to be 11 nM; in experiment [3] it was 13 nM.

As to `O=C(c1ccccc1S(=O)(=O)Nc1cccnc1)N1CCCCC1` [Example 67, 2-(piperidin-1-ylcarbonyl)-N-pyridin-3-ylbenzenesulfonamide], the Ki in experiment [1] (setting [4]) is 844 nM; in experiment [1] (setting [5]), 62 nM. Moreover, the IC50 in experiment [2] was 247 nM; in experiment [3] it was 110 nM.

Take `CCCN(CC1CC1)C(=O)c1ccccc1S(=O)(=O)Nc1cncc(C)c1` [Example 331, N-(cyclopropylmethyl)-2-{[(5-methylpyridin-3-yl)amino]sulfonyl}-N-propylbenzamide]: the Ki in experiment [1] (setting [4]) was 75.2 nM; in experiment [1] (setting [5]), 10.9 nM. The 50% inhibitory concentration (IC50) in experiment [2] is 14 nM; in experiment [3], 12 nM.

With `CN(CCc1ccccc1)C(=O)c1ccccc1S(=O)(=O)Nc1cccnc1` [Example 68, N-methyl-N-(2-phenylethyl)-2-[(pyridin-3-ylamino)sulfonyl]benzamide], in experiment [1] (setting [4]), the Ki was determined as 116 nM. The results for the IC50 in experiment [2] and in experiment [3] were 36 nM and 17 nM, respectively.

Turning to `COc1cncc(NS(=O)(=O)c2ccccc2C(=O)NCCCc2ccccc2)c1` [Example 235, 2-{[(5-methoxypyridin-3-yl)amino]sulfonyl}-N-(3-phenylpropyl)benzamide], the Ki in experiment [1] (setting [4]) was 107 nM; in experiment [1] (setting [5]) it was 8.7 nM. Also, the IC50 in experiment [2] is 19 nM; in experiment [3] it was 10 nM.

For the compound `CCOCCNC(=O)c1ccccc1S(=O)(=O)Nc1cnccc1OCC` [Example 218, N-(2-ethoxyethyl)-2-{[(4-ethoxypyridin-3-yl)amino]sulfonyl}benzamide], the values for the Ki in experiment [1] (setting [4]) and in experiment [1] (setting [5]) were 748 nM and 146 nM, respectively. For the same compound, the IC50 in experiment [2] is 189 nM; in experiment [3], 96 nM.

With `Cc1ccc(CNC(=O)c2ccccc2S(=O)(=O)Nc2cccnc2)cc1` [Example 79, N-(4-methylbenzyl)-2-[(pyridin-3-ylamino)sulfonyl]benzamide], the Ki came out at 144 nM in experiment [1] (setting [4]) and 26.2 nM in experiment [1] (setting [5]). Besides, the IC50 is 177 nM in experiment [2] and 30 nM in experiment [3].
